{"source": "EPA's ToxValDB 9.5 (doi:10.2903/j.efsa.2013.3243)", "key": {"Anas platyrhynchos": {"system": "Anas platyrhynchos", "conditions": "reproductive"}, "Apis mellifera": {"system": "Apis mellifera", "conditions": "acute, duration: 48 hours, mortality"}, "Bibionidae": {"system": "Bibionidae", "conditions": "chronic/long-term; duration: 21 days; other"}, "Canidae": {"system": "Canidae", "conditions": "chronic; duration: 52 weeks; oral; Dog Other; organ weight"}, "Colinus virginianus": {"system": "Colinus virginianus", "conditions": "acute, oral, mortality"}, "Cyprinodon variegatus": {"system": "Cyprinodon variegatus", "conditions": "acute; duration: 96 hours; mortality"}, "Daphnia magna": {"system": "Daphnia magna", "conditions": "chronic/long-term; duration: 21 days; mobility"}, "Pimephales promelas": {"system": "Pimephales promelas", "conditions": "chronic/long-term; duration: 33 days; other"}, "Tagia sp.": {"system": "Tagia sp.", "conditions": "acute; duration: 14 days; mortality"}, "Aphidius rhopalosiphi": {"system": "Aphidius rhopalosiphi", "assay": "LR50; higher = less toxic", "conditions": "acute; duration: 48 hours; mortality"}, "Typhlodromus pyri": {"system": "Typhlodromus pyri", "assay": "LR50; higher = less toxic", "conditions": "acute; duration: 7 days; mortality"}}, "data": [{"smiles": "CCOC(=O)OC1=C(c2cc(C)ccc2C)C(=O)NC12CCC(OC)CC2", "note": "(stereo unspecified) [Spirotetramat]", "values": [{"measurement": "NOAEL", "setting": "Anas platyrhynchos", "result": 4, "unit": "mg/kg-day"}, {"measurement": "LD50", "setting": "Apis mellifera; dermal", "result": "> 100", "unit": "µg/piece"}, {"measurement": "LD50", "setting": "Apis mellifera; oral, unspecified", "result": "> 107", "unit": "µg/piece"}, {"measurement": "NOEC", "setting": "Bibionidae", "result": 0.1, "unit": "mg/L"}, {"measurement": "NOAEL", "setting": "Canidae", "result": 5, "unit": "mg/kg-day"}, {"measurement": "LC50", "setting": "Colinus virginianus; diet", "result": "> 475", "unit": "mg/kg-day"}, {"measurement": "LD50", "setting": "Colinus virginianus", "result": "> 2000", "unit": "mg/kg-day"}, {"measurement": "LC50", "setting": "Cyprinodon variegatus", "result": 1.96, "unit": "µg/mL"}, {"measurement": "NOEC", "setting": "Daphnia magna", "result": 2, "unit": "mg/L"}, {"measurement": "NOEC", "setting": "Pimephales promelas", "result": 0.534, "unit": "mg/L"}, {"measurement": "NOAEL", "setting": "Rattus norvegicus; acute, clinical signs", "result": 100, "unit": "mg/kg-day"}, {"measurement": "LD50", "setting": "Rattus norvegicus; acute, oral, mortality", "result": "> 2000", "unit": "mg/kg-day"}, {"measurement": "NOAEL", "setting": "Rattus norvegicus; reproduction developmental, body weight", "result": 70, "unit": "mg/kg-day"}, {"measurement": "LC50", "setting": "Tagia sp.", "result": "> 1000", "unit": "mg/kg"}, {"measurement": "LR50", "setting": "Aphidius rhopalosiphi", "result": 115, "unit": "g/ha"}, {"measurement": "LR50", "setting": "Typhlodromus pyri", "result": 0.333, "unit": "g/ha"}]}]}
